According to patent publication US20030181498A1, “Bicyclic heteroaryl compounds as inhibitors of the interaction between the integrin alpha4beta1 receptor and vcam-1 and/or fibronectin” (AstraZeneca AB, priority 2000, published 2003):

Biological target: T1, integrin α4β1 expressed on the MOLT-4 cell membrane with fibronectin (Homo sapiens, UniProt P05556+P13612)
T1 construct: integrin α4β1 expressed on the MOLT-4 cell membrane; host or cells: MOLT-4 human T-lymphoblastic leukaemia cells
Experiment: MOLT-4 cell/fibronectin adhesion assay
Type: cell-based
Conditions: MOLT-4 cells, fibronectin-coated plates, 2 h at 37° C.; read-out: inhibitor at (inhibition of MOLT-4 cell adhesion to fibronectin)
From the text: MOLT4 cells—human T-lymphoblastic leukaemia cells European Collection of Anil Cell Cultures, Porton Down)
Fibronectin—purified from human plasma by gelatin-sepharose affinity chromatography according to the methods described in E. Nengvall, E. Ruoslahti, Int. J. Cancer, 1977, 20, pages 1-5 and J. Forsyth et al, Methods in Enzymology, 1992, 21 pages 311-316).
1.1.1 MOLT-4 Cell/Fibronectin Adhesion Assay.
The MOLT-4 cell/fibronectin adhesion assay was used to investigate the interaction of the integrin α4β1 expressed on the MOLT-4 cell membrane with fibronectin. Polystyrene 96 well plates were coated overnight at 4° C. with fibronectin, 100 μl of 10 μg/ml in PBS. Non-specific adhesion sites were blocked by adding 100 μl BSA, 20 mg/ml. After incubating for 1 h at room temperature, the solutions were aspirated. […] Adherent cells were quantified by a colorimetric acid phosphatase assay. […] After incubation for 1 h at 37° C., 50 μl sodium hydroxide (1M) was added to each well and the absorbance 405 nm was measured on a microplate spectrophotometer. Compounds which inhibited adhesion gave a lower absorbance reading. […] Percentage inhibition was calculated with respect to total (no inhibitor) and non-specific (no fibronectin) standards on each plate. […]

T1 sequence (P13612 34-1032): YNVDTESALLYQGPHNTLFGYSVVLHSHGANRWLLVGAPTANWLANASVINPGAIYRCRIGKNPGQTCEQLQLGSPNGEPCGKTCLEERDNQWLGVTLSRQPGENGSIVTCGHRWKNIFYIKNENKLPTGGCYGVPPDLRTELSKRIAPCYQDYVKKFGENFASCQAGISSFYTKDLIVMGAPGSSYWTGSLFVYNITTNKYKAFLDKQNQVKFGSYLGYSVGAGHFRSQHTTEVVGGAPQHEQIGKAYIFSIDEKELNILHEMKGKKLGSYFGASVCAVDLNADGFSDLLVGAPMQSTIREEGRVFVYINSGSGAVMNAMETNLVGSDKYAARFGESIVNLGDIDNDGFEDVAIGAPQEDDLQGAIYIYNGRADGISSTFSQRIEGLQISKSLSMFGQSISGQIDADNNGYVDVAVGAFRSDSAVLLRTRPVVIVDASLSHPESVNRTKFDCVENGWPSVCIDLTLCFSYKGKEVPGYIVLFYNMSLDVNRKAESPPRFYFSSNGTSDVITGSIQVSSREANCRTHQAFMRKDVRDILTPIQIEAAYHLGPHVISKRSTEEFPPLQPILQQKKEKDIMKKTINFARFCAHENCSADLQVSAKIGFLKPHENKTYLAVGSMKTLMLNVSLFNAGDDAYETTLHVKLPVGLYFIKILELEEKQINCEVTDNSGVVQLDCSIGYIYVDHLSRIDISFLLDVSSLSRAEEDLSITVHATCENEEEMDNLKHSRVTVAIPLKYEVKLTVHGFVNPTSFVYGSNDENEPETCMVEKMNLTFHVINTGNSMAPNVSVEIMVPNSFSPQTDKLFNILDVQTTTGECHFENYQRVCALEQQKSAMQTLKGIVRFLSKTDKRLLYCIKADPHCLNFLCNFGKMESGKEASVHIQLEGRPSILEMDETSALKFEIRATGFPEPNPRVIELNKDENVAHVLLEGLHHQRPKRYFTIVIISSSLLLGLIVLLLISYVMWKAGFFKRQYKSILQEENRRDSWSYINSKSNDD
T1 sequence (P05556 21-798): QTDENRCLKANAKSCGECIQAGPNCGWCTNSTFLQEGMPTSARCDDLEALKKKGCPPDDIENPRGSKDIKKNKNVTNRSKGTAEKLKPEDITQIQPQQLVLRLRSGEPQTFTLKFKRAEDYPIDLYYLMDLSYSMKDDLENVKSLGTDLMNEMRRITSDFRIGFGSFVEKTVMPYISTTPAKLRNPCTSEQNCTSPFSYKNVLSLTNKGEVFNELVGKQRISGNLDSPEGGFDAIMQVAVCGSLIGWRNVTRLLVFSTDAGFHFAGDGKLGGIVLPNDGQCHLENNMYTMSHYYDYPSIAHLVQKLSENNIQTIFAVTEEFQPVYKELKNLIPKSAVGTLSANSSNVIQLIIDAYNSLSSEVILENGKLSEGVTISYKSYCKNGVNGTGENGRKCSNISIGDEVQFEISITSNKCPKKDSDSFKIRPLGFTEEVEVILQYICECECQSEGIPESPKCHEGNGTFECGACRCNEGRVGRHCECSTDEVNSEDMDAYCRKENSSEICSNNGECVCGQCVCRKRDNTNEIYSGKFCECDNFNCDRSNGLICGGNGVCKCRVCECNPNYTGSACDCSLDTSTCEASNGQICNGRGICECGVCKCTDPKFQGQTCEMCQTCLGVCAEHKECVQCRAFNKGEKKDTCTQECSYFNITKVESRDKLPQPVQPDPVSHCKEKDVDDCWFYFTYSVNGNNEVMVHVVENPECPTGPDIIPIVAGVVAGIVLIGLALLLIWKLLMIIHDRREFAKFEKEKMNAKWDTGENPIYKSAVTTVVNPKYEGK

IC50: 1100 nM
Structure (SMILES): COc1cc(CC(=O)Nc2ccc(=O)n(CCCCC(=O)O)c2)cc2oc(Nc3ccccc3)nc12 [Compound CV]
